Experimental data: ChEMBL document CHEMBL5726710, “Thiazolopyrrolidine inhibitors of ROR- γ” (2018)
pKi: −log10 of the molar value.

Biological target: T1, Nuclear receptor ROR-gamma (Homo sapiens, UniProt P51449)
T1 sequence (P51449 whole entry): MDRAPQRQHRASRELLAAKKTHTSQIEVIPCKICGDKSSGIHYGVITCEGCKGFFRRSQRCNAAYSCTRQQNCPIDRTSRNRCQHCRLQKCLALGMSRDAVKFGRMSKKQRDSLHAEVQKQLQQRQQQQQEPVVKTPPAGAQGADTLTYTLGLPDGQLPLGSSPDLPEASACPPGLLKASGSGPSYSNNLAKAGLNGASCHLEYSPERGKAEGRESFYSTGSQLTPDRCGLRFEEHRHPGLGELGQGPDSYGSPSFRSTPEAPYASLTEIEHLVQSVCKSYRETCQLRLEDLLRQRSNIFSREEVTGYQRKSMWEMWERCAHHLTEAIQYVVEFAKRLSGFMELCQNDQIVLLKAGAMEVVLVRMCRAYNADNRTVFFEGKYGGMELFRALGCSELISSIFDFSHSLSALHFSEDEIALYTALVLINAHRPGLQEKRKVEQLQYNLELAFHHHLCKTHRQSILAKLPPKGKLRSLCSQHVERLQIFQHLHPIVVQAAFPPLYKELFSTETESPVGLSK
Experiment: Binding Assay: Compounds of the present invention were tested for ability to bind to RORγ in a cell-free competition assay with commercially available radio-ligand (RL), 25-hydroxy [26,27-3H]— cholesterol (PerkinElmer, Cat. # NET674250UC), for a ligand binding site on a recombinant RORγ Ligand Binding Domain (LBD) protein expressed as a 6×His-Glutathione-S-Transferase (GST) fusion (“6×His” disclosed as SEQ ID NO: 2). The assay was performed in 96-well SPA plates (PerkinElmer, Cat. #1450-401) in 50 mM HEPES buffer, pH 7.4, containing 150 mM NaCl, 5 mM MgCl2, 10% (v/v) glycerol, 2 mM CHAPS, 0.5 mM β-octylglucopyranoside and 5 mM DTT. Tested compounds were dissolved in DMSO, and semi-log (3.162×) serial dilutions of the compounds were prepared in the same solvent. Two μL of the DMSO solutions were mixed with 28 μL of 8.6 nM 25-hydroxy [26,27-3H]— cholesterol and 50 μL of 24 nM RORγ LBD. The plate was shaken at 700 rpm for 20 min and incubated for 10 min at rt, after which 40 μL of poly-Lys YSi SPA beads (PerkinElmer, Cat. # RPNQ0010) were added to achieve 50 μg of the beads per well. The plate was incubated on an orbital shaker for 20 min and then for 10 min without agitation at rt. SPA signal for tritium beta radiation was registered on PerkinElmer Microbeta plate reader. […]

- pKi: < 6.00
Structure (SMILES): CC(C)[C@H]1c2nc(NS(=O)(=O)c3cccc(C(F)(F)F)c3)sc2CN1Cc1ccc(Cl)cc1
